Results as given in US9650348B2, “Triazines with suitable spacers for treatment and/or prevention of HIV infections” (Universiteit Antwerpen, priority 2012, dated 2017).

What was measured:
[1] = system: HIV-1 BaL; assay: TZM-bl antiviral assay, wild type HIV-1 Ba-L; assay type: cell-based; conditions: Human immunodeficiency virus 1, BAL; TZM-bl cells, Ba-L wild type; read-out: Antiviral activity-wild type viruses EC50 TZM-bI Ba-L
Procedure: (§1) The JC53-BL cell line, also known as the TZM-bl cell line (NIH AIDS Research and Reference Reagent Program, Germantown, USA), was used for the evaluation of anti-HIV activity. TZM-bl cells were cultured in Dulbecco's […] (DMEM) (Lonza) containing 10% heat-inactivated FBS and 50 μg gentamycin/mL at 37° C. in a humidified 5% CO2, 95% air environment. Twice a week the cells were treated with 0.25% trypsin-1 mM EDTA (Lonza) for 10 minutes. The resulting cell suspension was washed with an equivalent amount of TZM-bl medium and subsequently seeded in a T75 culture flask (Greiner Bio-One, Germany) at 10^6 cells in 20 mL medium.
(§2) The antiviral activity of the newly designed compounds was measured by pre-incubating ten thousand TZM-bl cells (at 10^5 cells/mL in culture medium supplemented with 30 μg/mL DEAE dextran) in a 96-well plate for 30 minutes at 37° C., 5% CO2 in the presence or absence of serial dilutions of the respective compound. Subsequently, 200 TCID50 of HIV-1 BaL was added to each well and cultures were incubated for 48 hours before quantifying luciferase activity, using a TriStar LB941 luminometer (Berthold Technologies GmbH & Co. KG, Bad Wildbad, Germany). Each condition was evaluated in triplicate wells and in at least two independent experiments. The antiviral activity of the compound was expressed as the percentage of viral inhibition compared to the untreated controls and subsequently plotted against the compound concentration.
(§3) The target compounds are evaluated for their anti-HIV-1 activity and cytotoxicity. In a primary screen, the anti-HIV activity against the laboratory strain Ba-L and against a primary subtype C isolate was determined in the TZM-bl cell line. Cellular toxicity on TZM-bl cells was evaluated using WST-1. […] In addition, the activity against NNRTI-resistant viruses (V106A, Y181C, L100I+K103N, L100I+E138K+T369I and K101E+K103N+V108VI+V179M+Y181C+E138Q) was tested. Diarylpyrimidines (DAPY) TMC120, TMC125 and TMC278 were used as reference compounds.

[2] = system: VI829; assay: TZM-bl antiviral assay, wild type VI829 (primary subtype C isolate); assay type: cell-based, HIV-1; conditions: Human immunodeficiency virus 1; TZM-bl cells, VI829 wild type; read-out: Antiviral activity-wild type viruses EC50 TZM-bI VI829
Procedure: as §1, §2, §3

[3] = system: HIV-1 Ba-L; assay: Antiviral activity in peripheral blood mononuclear cells (PBMC), Ba-L; assay type: cell-based; conditions: Human immunodeficiency virus 1, BAL, Ba-L wild type, read-out: Antiviral activity-wild type viruses EC50 PBMC Ba-L
[4] = system: HIV-1 Ba-L; assay: Antiviral activity in dendritic cells / CD4+ T lymphocytes (DC/T4), Ba-L; assay type: cell-based; conditions: Human immunodeficiency virus 1, BAL; DC/T4, Ba-L wild type; read-out: Antiviral activity-wild type viruses EC50 DC/T4 Ba-L
[5] = system: Ba-L V106A; assay: Antiviral activity, NNRTI-resistant virus V106A; assay type: cell-based, HIV-1; conditions: for FC (V106A): Ba-L V106A; for EC50: Human immunodeficiency virus 1, BAL, read-out: Antiviral activity-NNRTI-resistant viruses EC50 Ba-L V106A
Procedure: as §3

[6] = system: VI829 Y181C; assay: Antiviral activity, NNRTI-resistant virus Y181C; assay type: cell-based, HIV-1; conditions: for EC50: Human immunodeficiency virus 1, read-out: Antiviral activity-NNRTI-resistant viruses EC50 VI829 Y181C; for FC (Y181C): VI829 Y181C
Procedure: as §3

[7] = system: VI829 L100I+K103N; assay: Antiviral activity, NNRTI-resistant virus L100I+K103N; assay type: cell-based, HIV-1; conditions: for EC50: Human immunodeficiency virus 1, read-out: Antiviral activity-NNRTI-resistant viruses EC50 VI829 L100I+K103N; for FC (L100I+K103N): VI829 L100I+K103N
Procedure: as §3

[8] = system: Ba-L K101E + K103N + V108VI + V179M + Y181C + E138Q; assay: Antiviral activity, NNRTI-resistant virus K101E+K103N+V108VI+V179M+Y181C+E138Q; assay type: cell-based, HIV-1; conditions: for FC (*): Ba-L, * = K101E + K103N + V108VI + V179M + Y181C + E138Q; for EC50: Human immunodeficiency virus 1, BAL, read-out: Antiviral activity-NNRTI-resistant viruses EC50 Ba-L *
Procedure: (§4) The target compounds are evaluated for their anti-HIV-1 activity and cytotoxicity. In a primary screen, the anti-HIV activity against the laboratory strain Ba-L and against a primary subtype C isolate was determined in the TZM-bl cell line. Cellular toxicity on TZM-bl cells was evaluated using WST-1. Based on the primary screening results, the target compound was further evaluated for anti-HIV activity in different primary cells, including peripheral blood mononuclear cells, dendritic cells and CD4+ T lymphocytes. In addition, the activity against NNRTI-resistant viruses (V106A, Y181C, L100I+K103N, L100I+E138K+T369I and K101E+K103N+V108VI+V179M+Y181C+E138Q) was tested. Diarylpyrimidines (DAPY) TMC120, TMC125 and TMC278 were used as reference compounds.

[9] = system: VI829 L100I+E138K+T369I; assay: Antiviral activity, NNRTI-resistant virus L100I+E138K+T369I; assay type: cell-based, HIV-1; conditions: for FC (**): VI829, ** = L1001 + E138K + T3691
Procedure: as §4

[10] = in vitro; assay type: cell-based; conditions: human, Cytotoxicity CC50 TZM-bI
Text: (§5) The Water Soluble Tetrazolium-1 (WST-1) Cell Proliferation Assay is a colorimetric assay for the measurement of cell proliferation and viability. The assay is based on the cleavage of the tetrazolium salt WST-1 (4-[3-(4-iodophenyl)-2-(4-nitrophenyl)-2H-5-tetrazolio]-1,3-benzene disulfonate) to a formazan dye by a complex cellular mechanism. This bioreduction is largely dependent on the glycolytic production of NAD(P)H in viable cells. Therefore, the amount of formazan dye formed correlates directly to the number of viable cells in the culture, and can be quantified by measuring the absorbance at 450 nm in a multiwell plate reader. The greater the number of viable cells, the greater the amount of formazan dye produced following the addition of WST-1. Cytotoxicity of each compound was evaluated using this WST-1 viability assay, according to the manufacturer's instructions (Roche, Vilvoorde, Belgium).
(§6) Briefly, ten thousand TZM-bl cells were seeded in a 96-well plate and cultured for 2 days in the presence of a serial dilution of compound. After this 48 h exposure, Cell Proliferation Reagent, WST-1, was added and absorbance at 450 nm was quantified after 90 min using a microplate reader (BioRad, Tokio, Japan). Each compound was tested in three replicate wells and in at least two independent experiments.
as §3

[11] = system: TZM-bl cells; assay: in vitro; assay type: cell-based; conditions: human, 48 h
Text: as §5, §6, §3

[12] = Partition coefficient (Log D), octanol/PBS; assay type: physicochemical; conditions: octanol/PBS pH 7.4
Procedure: 10 mM stock solution (in DMSO) was prepared.
200 μM solution (in DMSO) was prepared from 10 mM stock solution.
A set of 5-10 dilutions (in MeOH) of each compound were prepared from 200 μM solution to give final test concentrations between 1 nm and 2 μM.
MS tuning was done for each compound to find the daughter peaks using 500 nm solution.
Calibration curve was made for each compound to evaluate the linearity of our method.
Octanol was first saturated with PBS and PBS was first saturated with octanol
20 μl of a 10 mM DMSO stock solution was added to 990 μl of PBS (pH 7.4) and then 990 μl of octanol was added. The experiment was done in duplicate. After two hours of shaking at 37° C. and keeping at room temperature for 30 minutes the two layers were separated. After separation, octanol layer was diluted further with MeOH and compound was quantified in both layers by UPLC (waters). The samples were analysed in triplicate.
Where: • ConcINITIAL=Concentration of compound in the initial aqueous solution (PBS) • ConcFINAL=Concentration of compound in final aqueous phase (PBS) • Vaq=Volume of aqueous (PBS) • Voct=Volume of octanol

SMILES: Cc1cc(/C=C/C#N)cc(C)c1Nc1ccnc(Nc2ccc(C#N)cc2)n1 [TMC278, Rilpivirine, reference compound]
- EC50 [1]: 0.72 nM
- EC50 [2]: 1 nM
- EC50 [3]: 5.2 nM
- EC50 [4]: 1.6 nM
- FC (V106A) [5]: 1
- EC50 [5]: 0.93 nM
- EC50 [6]: 2.5 nM
- FC (Y181C) [6]: 3
- EC50 [7]: 3.6 nM
- FC (L100I+K103N) [7]: 4
- FC (*) [8]: 38
- EC50 [8]: 27 nM
- FC (**) [9]: 130
- CC50 at 48 h [10]: < 10000 nM
- CC50 [11]: 7740 nM
- logD at 2 h [12]: 4

SMILES: Cc1cc(C=CC#N)cc(C)c1Nc1nc(N)nc(Nc2ccc(C#N)cc2)n1 [T1, 4-(4-amino-6-(4-(2-cyanovinyl)-2,6-dimethylphenylamino)-1,3,5-triazin-2-ylamino)benzonitrile]
- EC50 [1]: 1.3 nM
- EC50 [2]: 1.1 nM
- EC50 [3]: 1.8 nM
- EC50 [4]: 0.7 nM
- FC (V106A) [5]: 1
- EC50 [5]: 1.7 nM
- EC50 [6]: 4 nM
- FC (Y181C) [6]: 3
- EC50 [7]: 15 nM
- FC (L100I+K103N) [7]: 10
- FC (*) [8]: 18
- EC50 [8]: 22.8 nM
- FC (**) [9]: 210
- CC50 at 48 h [10]: 34600 nM

SMILES: Cc1cc(C)c(Nc2ccnc(Nc3ccc(C#N)cc3)n2)c(C)c1 [TMC120, reference compound]
- EC50 [1]: 2 nM
- EC50 [2]: 2 nM
- EC50 [3]: 5.1 nM
- EC50 [4]: 1.6 nM
- FC (V106A) [5]: 1
- EC50 [5]: 2.5 nM
- EC50 [6]: 10.8 nM
- FC (Y181C) [6]: 5
- EC50 [7]: 674 nM
- activity against Efavirenz resistant viruses (L100I+K103N), in words ([7]; L100I+K103N): high nanomolar activity
- FC (L100I+K103N) [7]: 337
- FC (*) [8]: >500
- EC50 [8]: > 1000 nM
- activity against NNRTI-resistant virus K101E+K103N+V108VI+V179M+Y181C+E138Q, in words ([8]; K101E+K103N+V108VI+V179M+Y181C+E138Q): no activity
- activity against NNRTI-resistant virus L100I+E138K+T369I, in words ([9]; L100I+E138K+T369I): no activity
- FC (**) [9]: >500
- CC50 at 48 h [10]: 2880 nM
- CC50 [11]: < 5000 nM
- logD at 2 h [12]: > 5

SMILES: Cc1cc(C=CC#N)cc(C)c1Nc1nc(Nc2ccc(C#N)cc2)nc(NC(C)C)n1 [T6, 4-((4-((4-(2-cyanovinyl)-2,6-dimethylphenyl)amino)-6-(isopropylamino)-1,3,5-triazin-2-yl)amino)benzonitrile]
- EC50 [1]: 5 nM
- EC50 [2]: 4.3 nM
- EC50 [3]: 14 nM
- EC50 [4]: 1.4 nM
- FC (V106A) [5]: 6
- EC50 [5]: 30 nM
- EC50 [6]: 45 nM
- FC (Y181C) [6]: 10
- EC50 [7]: 184 nM
- FC (L100I+K103N) [7]: 43
- FC (*) [8]: 85
- EC50 [8]: 424 nM
- FC (**) [9]: 225
- CC50 at 48 h [10]: 24700 nM

SMILES: Cc1cc(/C=C/C#N)cc(C)c1Nc1nc(N)nc(Nc2ccc(C#N)cc2)n1 [T2, (E)-4-(4-amino-6-(4-(2-cyanovinyl)-2,6-dimethylphenylamino)-1,3,5-triazin-2-ylamino)benzonitrile]
- EC50 [1]: 1.3 nM
- EC50 [2]: 1.3 nM
- EC50 [3]: 5.3 nM
- EC50 [4]: 0.51 nM
- FC (V106A) [5]: 1
- EC50 [5]: 1.9 nM
- EC50 [6]: 2.6 nM
- FC (Y181C) [6]: 2
- EC50 [7]: 6.8 nM
- FC (L100I+K103N) [7]: 5.2
- FC (*) [8]: 18
- EC50 [8]: 23 nM
- FC (**) [9]: 68
- CC50 at 48 h [10]: 24500 nM
- logD at 2 h [12]: 3.8
